Key:
[1] = system: SF-295; assay: NCI human tumor cell panel: SF-295 (CNS Cancer); assay type: cell-based
[2] = system: UACC-257; assay: NCI human tumor cell panel: UACC-257 (Melanoma); assay type: cell-based
[3] = system: MALME-3M; assay: NCI human tumor cell panel: MALME-3M (Melanoma); assay type: cell-based; conditions: Malme-3M, read-out: Log10 GI50 (converted)
[4] = system: 786-0; assay: NCI human tumor cell panel: 786-0 (Renal Cancer); assay type: cell-based
[5] = system: ACHN; assay: NCI human tumor cell panel: ACHN (Renal Cancer); assay type: cell-based
[6] = system: A498; assay: NCI human tumor cell panel: A498 (Renal Cancer); assay type: cell-based
[7] = system: MOLT-4; assay: NCI human tumor cell panel: MOLT-4 (Leukemia); assay type: cell-based
[8] = system: HOP-92; assay: NCI human tumor cell panel: HOP-92 (Non-Small Cell Lung Cancer)
[9] = system: A549/ATCC; assay: NCI human tumor cell panel: A549/ATCC (Non-Small Cell Lung Cancer); assay type: cell-based
[10] = system: PC-3; assay: NCI human tumor cell panel: PC-3 (Prostate Cancer); assay type: cell-based
[11] = system: MCF7/ADR-RES; assay: NCI human tumor cell panel: MCF7/ADR-RES (Breast Cancer); assay type: cell-based
[12] = system: SW-620; assay: NCI human tumor cell panel: SW-620 (Colon Cancer); assay type: cell-based
[13] = system: HOP-62; assay: NCI human tumor cell panel: HOP-62 (Non-Small Cell Lung Cancer); assay type: cell-based; conditions: HOP-62, read-out: Log10 TGI (converted)
[14] = system: NCI-H460; assay: NCI human tumor cell panel: NCI-H460 (Non-Small Cell Lung Cancer); assay type: cell-based; conditions: NCI-H460, read-out: Log10 TGI (converted)
[15] = system: TK-10; assay: NCI human tumor cell panel: TK-10 (Renal Cancer); assay type: cell-based
[16] = system: HCT-116; assay: NCI human tumor cell panel: HCT-116 (Colon Cancer); assay type: cell-based
[17] = system: IGROV1; assay: NCI human tumor cell panel: IGROV1 (Ovarian Cancer); assay type: cell-based
[18] = system: SNB-75; assay: NCI human tumor cell panel: SNB-75 (CNS Cancer); assay type: cell-based
[19] = system: OVCAR-4; assay: NCI human tumor cell panel: OVCAR-4 (Ovarian Cancer); assay type: cell-based; conditions: OVCAR-4, read-out: Log10 TGI (converted)
[20] = system: UACC-62; assay: NCI human tumor cell panel: UACC-62 (Melanoma); assay type: cell-based
[21] = system: EKVX; assay: NCI human tumor cell panel: EKVX (Non-Small Cell Lung Cancer); assay type: cell-based
[22] = system: NCI-H23; assay: NCI human tumor cell panel: NCI-H23 (Non-Small Cell Lung Cancer); assay type: cell-based
[23] = system: LOX IMVI; assay: NCI human tumor cell panel: LOX IMVI (Melanoma); assay type: cell-based
[24] = system: OVCAR-5; assay: NCI human tumor cell panel: OVCAR-5 (Ovarian Cancer); assay type: cell-based
[25] = system: SR; assay: NCI human tumor cell panel: SR (Leukemia); assay type: cell-based
[26] = system: OVCAR-8; assay: NCI human tumor cell panel: OVCAR-8 (Ovarian Cancer); assay type: cell-based
[27] = system: KM12; assay: NCI human tumor cell panel: KM12 (Colon Cancer); assay type: cell-based
[28] = system: HS 578T; assay: NCI human tumor cell panel: HS 578T (Breast Cancer); assay type: cell-based
[29] = system: HCT-15; assay: NCI human tumor cell panel: HCT-15 (Colon Cancer); assay type: cell-based
[30] = system: BT-549; assay: NCI human tumor cell panel: BT-549 (Breast Cancer); assay type: cell-based
[31] = system: HT29; assay: NCI human tumor cell panel: HT29 (Colon Cancer); assay type: cell-based; conditions: HT-29, HT29, read-out: Log10 TGI (converted)
[32] = system: SN12C; assay: NCI human tumor cell panel: SN12C (Renal Cancer); assay type: cell-based
[33] = system: K-562; assay: NCI human tumor cell panel: K-562 (Leukemia); assay type: cell-based
[34] = read-out: Log10 GI50 (converted)
[35] = read-out: Log10 TGI (converted)

For `OCc1ccc(-c2ccc(-c3ccc[se]3)s2)[se]1` [compound 676631], the GI50 ([1]; SF-295, read-out: Log10 GI50 (converted)) was 55 µM, the IC (TGI) ([1]; SF-295, read-out: Log10 TGI (converted)) was over 100 µM and the GI50 ([2]; UACC-257, read-out: Log10 GI50 (converted)) was 0.0316 µM. It also gave an IC (TGI) ([2]; UACC-257, read-out: Log10 TGI (converted)) of over 100 µM, a GI50 [3] of over 100 µM and a GI50 ([4]; 786-0, read-out: Log10 GI50 (converted)) of over 100 µM. The IC (TGI) ([4]; 786-0, read-out: Log10 TGI (converted)) was over 100 µM, the GI50 [5, 34] was over 100 µM and the IC (TGI) [5, 35] was over 100 µM. It also gave a GI50 ([6]; A498, read-out: Log10 GI50 (converted)) of 0.0275 µM, an IC (TGI) ([6]; A498, read-out: Log10 TGI (converted)) of 0.0832 µM and a GI50 ([7]; MOLT-4, read-out: Log10 GI50 (converted)) of over 100 µM. It also gave an IC (TGI) ([7]; MOLT-4, read-out: Log10 TGI (converted)) of over 100 µM, a GI50 ([8]; HOP-92, read-out: Log10 GI50 (converted)) of over 100 µM and an IC (TGI) ([8]; HOP-92, read-out: Log10 TGI) of over 100 µM. The GI50 [9, 34] was 58.9 µM, the IC (TGI) [9, 35] was over 100 µM and the GI50 ([10]; PC-3, read-out: Log10 GI50 (converted)) was 52.5 µM. It also gave an IC (TGI) ([10]; PC-3, read-out: Log10 TGI (converted)) of over 100 µM, a GI50 [11, 34] of 10 µM and an IC (TGI) [11, 35] of 31.6 µM. It also gave a GI50 ([12]; SW-620, read-out: Log10 GI50 (converted)) of 0.355 µM, an IC (TGI) ([12]; SW-620, read-out: Log10 TGI (converted)) of over 100 µM and an IC (TGI) [13] of over 100 µM. The IC (TGI) [14] was over 100 µM, the GI50 ([15]; TK-10, read-out: Log10 GI50 (converted)) was 0.0501 µM and the IC (TGI) ([15]; TK-10, read-out: Log10 TGI (converted)) was 0.372 µM. It also gave a GI50 ([16]; HCT-116, read-out: Log10 GI50 (converted)) of 0.0537 µM, an IC (TGI) ([16]; HCT-116, read-out: Log10 TGI (converted)) of over 100 µM and a GI50 ([17]; IGROV-1, IGROV1, read-out: Log10 GI50 (converted)) of 0.0813 µM. It also gave an IC (TGI) ([17]; IGROV-1, IGROV1, read-out: Log10 TGI (converted)) of 0.603 µM, a GI50 ([18]; SNB-75, read-out: Log10 GI50 (converted)) of 41.7 µM and an IC (TGI) ([18]; SNB-75, read-out: Log10 TGI (converted)) of over 100 µM. The IC (TGI) [19] was over 100 µM, the GI50 ([20]; UACC-62, read-out: Log10 GI50 (converted)) was 0.0263 µM and the IC (TGI) ([20]; UACC-62, read-out: Log10 TGI (converted)) was 0.115 µM. The GI50 [21, 34] was over 100 µM, the IC (TGI) [21, 35] was over 100 µM and the GI50 ([22]; NCI-H23, read-out: Log10 GI50 (converted)) was 16.6 µM. For the same compound, the IC (TGI) ([22]; NCI-H23, read-out: Log10 TGI (converted)) was 38.9 µM, the GI50 [23, 34] was 15.1 µM and the IC (TGI) [23, 35] was 36.3 µM. It also gave a GI50 ([24]; OVCAR-5, read-out: Log10 GI50 (converted)) of 0.0316 µM, an IC (TGI) ([24]; OVCAR-5, read-out: Log10 TGI (converted)) of 0.209 µM and a GI50 [25, 34] of over 100 µM. It also gave an IC (TGI) [25, 35] of over 100 µM, a GI50 ([26]; OVCAR-8, read-out: Log10 GI50 (converted)) of 24.5 µM and an IC (TGI) ([26]; OVCAR-8, read-out: Log10 TGI (converted)) of over 100 µM. It also gave a GI50 ([27]; KM12, read-out: Log10 GI50 (converted)) of 26.9 µM, an IC (TGI) ([27]; KM12, read-out: Log10 TGI (converted)) of over 100 µM and a GI50 [28, 34] of over 100 µM. It also gave an IC (TGI) [28, 35] of over 100 µM, a GI50 ([29]; HCT-15, read-out: Log10 GI50 (converted)) of 27.5 µM and an IC (TGI) ([29]; HCT-15, read-out: Log10 TGI (converted)) of over 100 µM. The GI50 ([30]; BT-549, read-out: Log10 GI50 (converted)) was 17 µM, the IC (TGI) ([30]; BT-549, read-out: Log10 TGI (converted)) was 38 µM and the IC (TGI) [31] was over 100 µM. For the same compound, the GI50 [32, 34] was over 100 µM, the IC (TGI) [32, 35] was over 100 µM and the GI50 ([33]; K562, K-562, read-out: Log10 GI50 (converted)) was 0.102 µM. It also gave an IC (TGI) ([33]; K562, K-562, read-out: Log10 TGI (converted)) of over 100 µM.
